We go through 14 compounds from patent US7906551B2 (Rottapharm S.p.A., priority 2006, dated 2011).

Like-named read-outs stand apart in the source and are kept apart here.

The test system of data set [1] is rat model of edema induced by carragenine. The data set can be described thus: Carrageenan-induced paw edema. The format is in vivo. The conditions noted are these: 1 h, 20 mg/Kg, read-out: Edema inhibition 60 min, MPE. How it is done: (§1) Male Swiss albino mice (23-25 g) and Sprague Dawley or Wistar rats (150-200 g) were used. The animals were fed a standard laboratory diet and tap water ad libitum and kept at 23±1° C. with a 12 h light/dark cycle, light on at 7 a.m.
Rats paw volumes were measured using a plethysmometer. Rats received the investigated compounds 4 hours after a 0.1-ml injection of 1.0% carrageenan in the right hind paw. Five hours after the injection of carrageenan (i.e. 1 hour after the administration of the investigated compound), the paw volume of the right hind paw was measured and compared with saline/carrageenan-treated controls. Results are reported as maximum percent effect (MPE), see below for detailed explanation.
In general terms: The carrageenan paw model is a standard test of acute inflammation.

The target in data set [2] is T1, COX-2 (Mus musculus, UniProt Q05769).
T1 construct: lipopolysaccharide (LPS, 10 μg/mL) to induce COX-2; endogenous in cells; host or cells: J774 murine monocyte/macrophage cell line, LPS-stimulated
T1 sequence (Q05769 18-604): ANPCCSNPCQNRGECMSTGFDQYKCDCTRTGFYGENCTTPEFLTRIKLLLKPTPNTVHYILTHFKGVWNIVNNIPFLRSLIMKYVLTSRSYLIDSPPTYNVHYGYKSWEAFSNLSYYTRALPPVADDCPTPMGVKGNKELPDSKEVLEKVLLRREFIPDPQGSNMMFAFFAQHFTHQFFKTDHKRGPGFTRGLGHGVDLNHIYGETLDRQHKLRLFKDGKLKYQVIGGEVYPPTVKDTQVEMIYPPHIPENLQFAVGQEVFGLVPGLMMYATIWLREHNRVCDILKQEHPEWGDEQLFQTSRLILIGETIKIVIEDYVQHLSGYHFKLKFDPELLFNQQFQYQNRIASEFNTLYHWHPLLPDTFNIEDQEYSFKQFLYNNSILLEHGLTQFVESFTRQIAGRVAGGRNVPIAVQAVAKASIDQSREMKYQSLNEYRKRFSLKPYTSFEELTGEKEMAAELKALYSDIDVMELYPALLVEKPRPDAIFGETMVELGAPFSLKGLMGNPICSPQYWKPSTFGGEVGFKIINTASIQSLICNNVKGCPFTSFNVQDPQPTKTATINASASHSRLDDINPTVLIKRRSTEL
The data set can be described thus: Assessment of COX-2 activity in LPS-stimulated J774 cells (PGE2 radioimmunoassay). Format: cell-based, murine. As for the experimental part:
Cells were stimulated for 24 h with E. coli lipopolysaccharide (LPS, 10 μg/mL) to induce COX-2, in the absence or presence of test compounds, at the concentrations previously reported. The supernatants were collected for the measurement of PGE2 by radioimmunoassay.
(§2) Analysis. Throughout the time the experiments lasted, triplicate wells were used for the various conditions of treatment. Results are expressed as the mean, for 3 experiments, of the % inhibition of PGE2 production by test compounds with respect to control samples. Data fit was obtained using the sigmoidal dose-response equation (variable slope). The IC50 were calculated by GraphPad Instat program (GraphPad software).

For data set [3], the system named is rat model of hyperalgesia induced by carragenine. The data set can be described thus: Paw pressure test, hyperalgesia induced by carragenine. The conditions noted are these: 20 mg/Kg. Format: in vivo. As for the experimental part:
as §1
The nociceptive threshold in the rat was determined with an analgesimeter, according to the method described by Leighton et al, G. E.; Br. J. Pharmacol. 1988, 93, 553-560. Threshold pressure was measured before and 30, 60 and 120 min after treatment. An arbitrary cut-off value of 250 g was adopted. In order to induce an inflammatory process in the rat paw carrageenan (0.1 ml, 1%) was administered i.p. 4 h before test.

The target in data set [4] is T2, COX-1 (Mus musculus, UniProt P22437).
T2 construct: endogenous in cells; host or cells: J774 murine monocyte/macrophage cell line
T2 sequence (P22437 27-602): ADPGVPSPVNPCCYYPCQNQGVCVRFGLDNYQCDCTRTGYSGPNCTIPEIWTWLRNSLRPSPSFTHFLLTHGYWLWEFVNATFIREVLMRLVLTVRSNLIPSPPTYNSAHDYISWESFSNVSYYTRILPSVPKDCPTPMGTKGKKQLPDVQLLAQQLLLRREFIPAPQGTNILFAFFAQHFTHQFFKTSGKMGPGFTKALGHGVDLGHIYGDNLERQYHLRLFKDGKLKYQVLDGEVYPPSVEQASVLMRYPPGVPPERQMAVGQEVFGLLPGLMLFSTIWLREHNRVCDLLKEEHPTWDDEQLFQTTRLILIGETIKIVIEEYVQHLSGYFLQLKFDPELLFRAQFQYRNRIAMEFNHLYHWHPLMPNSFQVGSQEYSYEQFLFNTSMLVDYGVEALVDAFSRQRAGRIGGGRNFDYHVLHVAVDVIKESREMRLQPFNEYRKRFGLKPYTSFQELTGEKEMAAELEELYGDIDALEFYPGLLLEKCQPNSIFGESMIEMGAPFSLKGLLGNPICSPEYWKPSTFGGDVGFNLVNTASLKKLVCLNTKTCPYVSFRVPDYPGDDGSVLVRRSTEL
As to conditions: Table 1, reported by reference; cited from earlier work.

In data set [5] the target is T1, COX-2. The conditions noted are these: Table 1, reported by reference; cited from earlier work.
The target in data set [6] is T2, COX-1. Nature of the data set: Assessment of COX-1 activity in J774 cells (arachidonic acid, PGE2 radioimmunoassay). The format is cell-based, murine. The conditions noted are these: Table 8, Formula I-c. As for the experimental part:
Stock solutions of the reference standard or of the test compounds were prepared in dimethyl sulphoxide, and an equivalent amount of dimethyl sulphoxide was included in control samples. At the end of the incubation the supernatants were collected for the measurement of PGE2 by radioimmunoassay.
as §2

The mark [7] stands for this setting: 0.5 h, 30 min, read-out: Analgesia 30 min MPE.
[8] abbreviates: 1 h, 60 min, read-out: Analgesia 60 min MPE.
[9] abbreviates: Table 8, Formula I-c, read-out: COX-2 IC50.

The melting point is the temperature of the solid-liquid transition. With `CCOC(=O)C(O)c1cc(-c2ccc(S(C)(=O)=O)cc2)n(-c2ccccc2)c1C` (racemic) [Example 7, Ethyl[2-hydroxy-2-[2-methyl-5-(4-methylsulphonyl)phenyl-1-phenyl-1H-pyrrol-3-yl]]acetate], the melting point turned out to be 145 °C.
Still for that read-out and setting: the figure for `CCOC(=O)C(O)c1cc(-c2ccc(S(C)(=O)=O)cc2)n(-c2ccc(OC)cc2)c1C` (racemic) [Example 8, Ethyl[2-hydroxy-2-[1-(4-methoxy)phenyl-2-methyl-5-(4-methylsulphonyl)phenyl-1H-pyrrol-3-yl]]acetate] is 130 °C.
A word on the IC50: it is the concentration that inhibits the measured activity by half. Regarding `CCOC(=O)C(O)c1cc(-c2ccc(S(C)(=O)=O)cc2)n(-c2cccc(F)c2)c1C` (racemic) [Example 9, Ethyl[2-hydroxy-2-[1-(3-fluoro)phenyl-2-methyl-5-(4-methylsulphonyl)phenyl-1H-pyrrol-3-yl]]acetate], the inhibition in vivo at 20 mg/kg turned out to be 40% in data set [1] (Table 7, 60 min); 80% in data set [3] (0.5 h, Table 7, 30 min, read-out: Analgesia 30 min MPE); 40% in data set [3] (1 h, Table 7, 60 min, read-out: Analgesia 60 min MPE). The “COX-1/COX-2 Selectivity Index (IC50 ratio)” value on COX-2 [2] (Table 6, Formula Ib) is over 310. Moreover, at COX-2 [2] (Table 6, Formula Ib, read-out: COX-2 IC50), the IC50 was determined as 0.32 µM.
In the case of `Cc1c(CC(=O)O)cc(-c2ccc(S(C)(=O)=O)cc2)n1-c1ccccc1` [Compound 1a, 2-[2-methyl-5-(4-methylsulphonyl)phenyl-1-phenyl-1H-pyrrol-3-yl]acetic acid], on COX-1 [4], the half-maximal inhibitory concentration (IC50) is over 100 µM. Moreover, the “COX-1/COX-2 Selectivity Index (IC50 ratio)” value at COX-2 [5] is listed as over 100.
Regarding `CCOC(=O)Cc1cc(-c2ccc(S(C)(=O)=O)cc2)n(-c2ccccc2)c1C` [Compound 1b, Ethyl 2-[2-methyl-5-(4-methylsulphonyl)phenyl-1-phenyl-1H-pyrrol-3-yl]acetate, reference compound], the inhibition in vivo at 20 mg/kg amounted to 10% in data set [1] (60 min), 18% in data set [3] (setting [7]) and 30% in data set [3] (setting [8]). In addition, the 50% inhibitory concentration (IC50) on COX-1 [4] was over 100 µM. Also, the “COX-1/COX-2 Selectivity Index (IC50 ratio)” value at COX-2 [5] is recorded as over 2500.
In the case of `Cc1ccc(-n2c(-c3ccc(S(C)(=O)=O)cc3)cc(CC(=O)O)c2C)cc1` [Compound 2a, 2-[1-(4-methyl)phenyl-2-methyl-5-(4-methylsulphonyl)phenyl-1H-pyrrol-3-yl]acetic acid], on COX-1 [4], the IC50 was over 100 µM. In addition, the “COX-1/COX-2 Selectivity Index (IC50 ratio)” value on COX-2 [5] was over 200.
`CCOC(=O)Cc1cc(-c2ccc(S(C)(=O)=O)cc2)n(-c2ccc(C)cc2)c1C` [Compound 2b, Ethyl 2-[1-(4-methyl)phenyl-2-methyl-5-(4-methylsulphonyl)phenyl-1H-pyrrol-3-yl]acetate]: the IC50 at COX-1 [4] was over 100 µM. Besides, the “COX-1/COX-2 Selectivity Index (IC50 ratio)” value on COX-2 [5] is over 200.
For the compound `Cc1c(CC(=O)O)cc(-c2ccc(S(C)(=O)=O)cc2)n1-c1ccc(C(F)(F)F)cc1` [Compound 3a], the IC50 on COX-1 [4] was over 100 µM. Moreover, the “COX-1/COX-2 Selectivity Index (IC50 ratio)” value at COX-2 [5] was over 900.
`CCOC(=O)Cc1cc(-c2ccc(S(C)(=O)=O)cc2)n(-c2ccc(C(F)(F)F)cc2)c1C` [Compound 3b, Ethyl 2-[2-methyl-5-(4-methylsulphonyl)phenyl-1-(4-trifluoromethyl)phenyl-1H-pyrrol-3-yl]acetate]: the IC50 on COX-1 [4] is over 100 µM. On COX-2 [5], the “COX-1/COX-2 Selectivity Index (IC50 ratio)” value is over 1600.
For `CCOC(=O)Cc1cc(-c2ccc(S(C)(=O)=O)cc2)n(-c2cccc(F)c2)c1C` [Compound 4b, Ethyl 2-[1-(3-fluoro)phenyl-2-methyl-5-(4-methylsulphonyl)phenyl-1H-pyrrol-3-yl]acetate, reference compound], the inhibition in vivo at 20 mg/kg in data set [1] (60 min) stood at 30%; in data set [3] (setting [7]), 28%; in data set [3] (setting [8]), 40%. The same compound registered a selectivity on COX-2 [2] of over 10000. Moreover, the IC50 at COX-2 [2] (read-out: in vitro COX-2 inhibitory potency IC50) worked out at 0.01 µM.
As for `CCCCOC(=O)Cc1cc(-c2ccc(S(C)(=O)=O)cc2)n(-c2ccccc2)c1C` [Example 6, n-Butyl[1-phenyl-2-methyl-5-(4-methylsulphonyl)phenyl-1H-pyrrol-3-yl]acetate], the melting point stood at 124 °C. The “COX-1/COX-2 Selectivity Index (IC50 ratio)” value on COX-2 [2] (Table 2, Formula Ia) was over 7100.
The compound `CNC(=O)Cc1cc(-c2ccc(S(C)(=O)=O)cc2)n(-c2ccccc2)c1C` [Example 13, N-Methyl-[2-methyl-5-(4-methylsulphonyl)phenyl-1-phenyl-1H-pyrrol-3-yl]acetamide] had a melting point of 178 to 181 °C. Also, the IC50 at COX-2 [2] (setting [9]) was 1 µM. The same compound yielded an IC50 against COX-1 [6] of over 100 µM.
The matching figures for `Cc1c(CC(=O)N(C)C)cc(-c2ccc(S(C)(=O)=O)cc2)n1-c1ccccc1` [Example 15, N,N-Dimethyl-[2-methyl-5-(4-methylsulphonyl)phenyl-1-phenyl-1H-pyrrol-3-yl]acetamide]: 175 to 179 °C, 0.58 µM and over 100 µM.
Compound `CCCNC(=O)NCCc1cc(-c2ccc(S(C)(=O)=O)cc2)n(-c2ccccc2)c1C` [Example 39, N-[2-(2-Methyl-5-(4-(methylsulphonyl)phenyl)-1-phenyl-1H-pyrrol-3-yl)ethyl]-3-propyl urea] showed a melting point of 157 to 160 °C.
